± gives the standard deviation of the averaged measurements.
How the values were obtained:
DASATINIB = compound: Cc1nc(Nc2ncc(C(=O)Nc3c(C)cccc3Cl)s2)cc(N2CCN(CCO)CC2)n1 [DASATINIB]; test: surviving fraction relative to DMSO-only wells; higher = less growth inhibition; settings: exposure time: 5 days
Outline: (§1)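 Continuous five-day exposure to inhibitors at 0.5, 1, 5, 10, 50, 100, 500 and 1000 nM started 24 hours after log-phase tumour cell lines were seeded at 250–500 cells per well in 384-well plates. Luminescence was read after 10 minutes at room temperature. Viability is given as surviving fraction, meaning CellTiter-Glo luminescence normalised to the median of DMSO-only wells.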

XAV-939 = compound: Oc1nc(-c2ccc(C(F)(F)F)cc2)nc2c1CSCC2 [XAV-939]; test: as above; settings: exposure time: 5 days
Outline: as §1

Test System	surviving fraction (DASATINIB; 0.5 nM)	surviving fraction (DASATINIB; 1 nM)	surviving fraction (DASATINIB; 5 nM)	surviving fraction (DASATINIB; 10 nM)	surviving fraction (DASATINIB; 50 nM)	surviving fraction (DASATINIB; 100 nM)	surviving fraction (DASATINIB; 500 nM)	surviving fraction (DASATINIB; 1000 nM)	surviving fraction (XAV-939; 0.5 nM)	surviving fraction (XAV-939; 1 nM)	surviving fraction (XAV-939; 5 nM)	surviving fraction (XAV-939; 10 nM)	surviving fraction (XAV-939; 50 nM)	surviving fraction (XAV-939; 100 nM)	surviving fraction (XAV-939; 500 nM)	surviving fraction (XAV-939; 1000 nM)
22RV1 PROSTATE	1.15 ± 0.32	0.983 ± 0.09	1.1 ± 0.3	0.935 ± 0.097	1.01 ± 0.15	0.929 ± 0.056	1.04 ± 0.085	1.09 ± 0.16	1.02 ± 0.072	1.05 ± 0.11	1.03 ± 0.032	1 ± 0.065	0.934 ± 0.024	0.977 ± 0.024	1 ± 0.12	1.03 ± 0.096
93VU HEADNECK	0.779 ± 0.041	0.788 ± 0.054	0.829 ± 0.036	0.752 ± 0.053	0.276 ± 0.02	0.132 ± 0.016	0.0923 ± 0.0015	0.0923 ± 0.013	0.98 ± 0.073	1.06 ± 0.071	1.11 ± 0.091	1.07 ± 0.077	1.15 ± 0.095	1.17 ± 0.066	1.05 ± 0.089	0.907 ± 0.035
143B BONE	1.04 ± 0.058	1.03 ± 0.025	1.01 ± 0.046	0.9835 ± 0.00071	0.8695 ± 0.005	0.806 ± 0.019	0.7575 ± 0.0035	0.75 ± 0.042	0.977 ± 0.026	1.02 ± 0.012	0.952 ± 0.14	1.02 ± 0.042	0.911 ± 0.15	1.03 ± 0.044	0.922 ± 0.069	1.02 ± 0.023
A549 LUNG	0.915 ± 0.0066	0.9003 ± 0.0076	0.879 ± 0.02	0.859 ± 0.018	0.858 ± 0.033	0.8223 ± 0.0025	0.646 ± 0.028	0.631 ± 0.012	0.967 ± 0.022	0.985 ± 0.053	1.01 ± 0.035	1.02 ± 0.087	1.07 ± 0.022	1.12 ± 0.013	1.084 ± 0.0087	1.14 ± 0.022
ASKA SYNOVIAL	0.928 ± 0.024	0.904 ± 0.051	0.974 ± 0.061	0.936 ± 0.046	0.985 ± 0.085	0.94 ± 0.032	0.919 ± 0.019	0.905 ± 0.036	1.15 ± 0.11	1.17 ± 0.098	1.18 ± 0.028	1.23 ± 0.13	1.2 ± 0.073	1.14 ± 0.065	0.98 ± 0.068	0.984 ± 0.023
BT20 BREAST	0.767 ± 0.056	0.729 ± 0.02	0.699 ± 0.026	0.739 ± 0.11	0.774 ± 0.13	0.798 ± 0.061	0.752 ± 0.034	0.705 ± 0.036	1.08 ± 0.19	1.06 ± 0.043	1.05 ± 0.079	1.05 ± 0.051	1.08 ± 0.14	1.14 ± 0.05	1.26 ± 0.057	1.23 ± 0.1
BT549 BREAST	0.968 ± 0.16	0.937 ± 0.12	0.774 ± 0.12	0.669 ± 0.056	0.395 ± 0.037	0.236 ± 0.018	0.113 ± 0.012	0.114 ± 0.037	1.16 ± 0.085	1.19 ± 0.079	1.03 ± 0.077	1.16 ± 0.082	1.18 ± 0.044	1.08 ± 0.091	0.884 ± 0.014	0.872 ± 0.091
C33A CERVIX	0.869 ± 0.078	0.772 ± 0.044	0.521 ± 0.034	0.419 ± 0.008	0.219 ± 0.026	0.182 ± 0.0036	0.157 ± 0.0025	0.172 ± 0.0091	0.909 ± 0.039	0.973 ± 0.1	0.981 ± 0.032	1.03 ± 0.068	0.913 ± 0.068	0.901 ± 0.048	0.835 ± 0.062	0.755 ± 0.04
CADOES1 SOFT TISSUE	1.04 ± 0.07	1.01 ± 0.034	0.91 ± 0.042	0.939 ± 0.11	1.01 ± 0.079	0.973 ± 0.081	1.05 ± 0.099	1.14 ± 0.1	0.957 ± 0.1	0.993 ± 0.092	0.816 ± 0.0092	0.903 ± 0.049	0.857 ± 0.13	0.899 ± 0.094	0.922 ± 0.076	0.913 ± 0.091
CAL51 BREAST	0.838 ± 0.069	0.8707 ± 0.0049	0.832 ± 0.047	0.737 ± 0.046	0.491 ± 0.036	0.386 ± 0.025	0.248 ± 0.019	0.238 ± 0.033	0.967 ± 0.032	1.03 ± 0.046	1.02 ± 0.025	0.992 ± 0.017	1.01 ± 0.049	1.01 ± 0.023	0.846 ± 0.033	0.799 ± 0.089
CAL72 BONE	1.01 ± 0.048	1.01 ± 0.041	0.862 ± 0.16	0.618 ± 0.25	0.269 ± 0.12	0.233 ± 0.12	0.226 ± 0.12	0.221 ± 0.12	1.07 ± 0.023	1.05 ± 0.013	0.999 ± 0.015	0.976 ± 0.023	0.944 ± 0.012	0.957 ± 0.029	0.916 ± 0.038	0.9 ± 0.025
CAL120 BREAST	0.877 ± 0.098	0.882 ± 0.025	0.861 ± 0.013	0.786 ± 0.062	0.497 ± 0.022	0.358 ± 0.021	0.217 ± 0.0088	0.192 ± 0.015	0.984 ± 0.027	1.02 ± 0.013	1.01 ± 0.019	0.969 ± 0.018	1.01 ± 0.021	1.011 ± 0.0096	0.951 ± 0.012	0.9582 ± 0.0029
CASKI CERVIX	0.732 ± 0.045	0.777 ± 0.052	0.69 ± 0.024	0.474 ± 0.03	0.121 ± 0.0042	0.0747 ± 0.0047	0.0433 ± 0.0023	0.0293 ± 0.00058	0.918 ± 0.017	0.944 ± 0.037	0.975 ± 0.011	0.997 ± 0.013	1.03 ± 0.028	1.06 ± 0.03	0.935 ± 0.037	0.965 ± 0.051
CHLA90 AUTONOMIC GANGLIA	0.801 ± 0.031	0.804 ± 0.059	0.737 ± 0.054	0.712 ± 0.025	0.735 ± 0.11	0.656 ± 0.091	0.711 ± 0.044	0.728 ± 0.026	1.01 ± 0.071	1.04 ± 0.051	0.989 ± 0.031	0.997 ± 0.045	0.975 ± 0.019	0.948 ± 0.067	0.987 ± 0.072	0.933 ± 0.022
CME SYNOVIAL	0.831 ± 0.15	0.827 ± 0.1	0.752 ± 0.088	0.713 ± 0.1	0.598 ± 0.028	0.464 ± 0.042	0.411 ± 0.075	0.383 ± 0.036	1.27 ± 0.24	1.2 ± 0.093	1.25 ± 0.16	1.3 ± 0.093	1.29 ± 0.14	1.3 ± 0.071	1.1 ± 0.03	0.952 ± 0.094
COLO320DM LARGE INTESTINE	1.12 ± 0.096	1.01 ± 0.051	1.08 ± 0.074	1.1 ± 0.034	1.03 ± 0.028	1.02 ± 0.056	1.09 ± 0.045	1.09 ± 0.089	1.1 ± 0.051	1.14 ± 0.069	1.08 ± 0.15	0.997 ± 0.11	1.08 ± 0.013	0.994 ± 0.075	0.827 ± 0.071	0.805 ± 0.088
DU4475 BREAST	0.824 ± 0.17	0.828 ± 0.09	0.802 ± 0.1	0.689 ± 0.21	0.658 ± 0.031	0.748 ± 0.15	0.669 ± 0.2	0.514 ± 0.083	1.02 ± 0.28	0.857 ± 0.17	0.884 ± 0.18	1.05 ± 0.12	1.07 ± 0.17	1.16 ± 0.18	1.15 ± 0.33	1.1 ± 0.25
H23 LUNG	0.924 ± 0.025	0.902 ± 0.065	0.823 ± 0.064	0.783 ± 0.052	0.597 ± 0.051	0.511 ± 0.067	0.288 ± 0.0063	0.256 ± 0.013	0.953 ± 0.035	1.03 ± 0.062	1.04 ± 0.071	1.08 ± 0.075	1.01 ± 0.037	0.992 ± 0.02	0.391 ± 0.041	0.318 ± 0.024
HCC78 LUNG	0.662 ± 0.064	0.783 ± 0.025	0.849 ± 0.084	0.914 ± 0.068	0.569 ± 0.15	0.235 ± 0.019	0.175 ± 0.056	0.176 ± 0.045	0.9 ± 0.1	0.925 ± 0.12	1.09 ± 0.18	0.991 ± 0.13	0.983 ± 0.082	0.822 ± 0.16	0.286 ± 0.062	0.358 ± 0.08
HCC202 BREAST	0.999 ± 0.37	1.23 ± 0.21	0.816 ± 0.2	0.907 ± 0.31	0.697 ± 0.21	0.722 ± 0.042	0.509 ± 0.019	0.505 ± 0.21	1.4 ± 0.094	1.23 ± 0.2	1.17 ± 0.094	0.972 ± 0.14	1.12 ± 0.18	0.905 ± 0.077	1.04 ± 0.2	0.953 ± 0.065

Reference: the supplement of paper PMC6045584
